Test results: patent publication US9469836B2, “Antifungal metabolites from fungal endophytes of Pinus strobus” (J.D. IRVING, LIMITED, priority 2011, dated 2016)

Legend:
Type in all cases: cell-based
[1] = tested on: Saccharomyces cerevisae; assay: Quantitative cell density test, OD 600 nm, 96 well microplates, yeast; conditions: for reduction in cell density vs controls (OD 600 nm): S. cerevisae, 24 hours, 10 μL of 1 mg/mL (˜4 μM) compound in DMSO added to 200 μL culture, ANOVA p<0.000
Text: (§1) The results of the Oxford disc assay using the isolated compounds confirmed these observations for both S. cerevisae and Microbotryum violaceum. A quantitative test protocol based on cell density using OD measurements at 600 nm in 96 well microplates was employed.
(§2) Disc diffusion assays with the extracts were employed for preliminary antifungal testing using Saccharomyces cerevisae for all strains (Sumarah et al., 2008b). […] The individual compounds were further tested using these two fungi in 96 well microplates where 10 μL of 1 mg/mL (˜4 μM) of each compound in DMSO was added to 200 μL of the above macerated cultures. The plates were incubated at room temperature with constant shaking and were measured at 600 nm. The antifungal compound nystatin was used as the positive control for all experiments.

[2] = tested on: Saccharomyces cerevisae; assay: Disc diffusion (Oxford) antifungal assay, yeast; conditions: isolated compounds
Experimental: (§3) The term “toxicity” as used herein with respect to the effect of a toxin compound or toxigenic endophyte strain on a pest means inhibited or reduced growth and/or pest death in the presence of the toxin compound or toxigenic endophyte compared to a control. For example, where toxicity is assessed using a disc diffusion assay, which uses a disc comprising a compound, which is placed on a microbial lawn, the compound is a toxic compound if it results in a zone of clearing around the disc.
(§4) From these strains the new aliphatic polyketide compound 1 and three related sesquiterpenes (IIa), (IIb) and (III) were isolated and characterized (see FIG. 1). Compound (III) is reported for the first time as a natural product and the E/Z conformational isomers (IIa) and (IIb) are reported as new structures (see FIG. 1). Additionally, the three known macrolides; pyrenophorol (IV), dihydropyrenophorin (V) and pyrenophorin (VI) were isolated and identified. Their structures were elucidated by spectroscopic analyses including 2D NMR, HRMS and by comparison to literature data where available.
as §1, §2

[3] = tested on: Microbotryum violaceum; assay: Disc diffusion (Oxford) antifungal assay, rust; conditions: isolated compounds, rust grown on MYP
Experimental: as §3, §4, §1, §2

[4] = tested on: Microbotryum violaceum; assay: Quantitative cell density test, OD 600 nm, 96 well microplates, rust; conditions: M. violaceum, 48 hours; 10 μL of 1 mg/mL (˜4 μM) compound in DMSO added to 200 μL culture; ANOVA p<0.000
Text: as §1, §2

| Compound | reduction in cell density vs controls (OD 600 nm) [1] | antifungal activity against Saccharomyces cerevisae [2] | antifungal activity against Microbotryum violaceum [3] | antifungal activity against Microbotryum violaceum ([3]; listed as (2E,4Z)-methyl-6-acetoxy-5-acetyl-7-oxohepta-2,4-dienoate) | reduction in cell density vs controls (OD 600 nm) [4] | antifungal activity against Microbotryum violaceum ([3]; listed as 5) | rank of antifungal effect among compounds 1, (III) and (IV) ([1]; based on results of the response at 24 h) | antifungal activity against Microbotryum violaceum ([3]; listed as 2) |
| --- | --- | --- | --- | --- | --- | --- | --- | --- |
| COC(=O)/C=C\C=C(\C=O)C(OC(C)=O)C(C)=O (stereo not shown) [Compound 1, (2Z,4E)-methyl-6-acetoxy-5-formyl-7-oxo-octa-2,4-dienoate] | Statistically-significant reductions in cell density | antifungal activity | antifungal activity | antifungal activity | Statistically-significant reductions in cell density |  |  |  |
| C[C@@H]1CC[C@H](O)/C=C/C(=O)O[C@H](C)CC[C@H](O)/C=C/C(=O)O1 [Compound (IV), pyrenophorol] | Statistically-significant reductions in cell density | antifungal activity | antifungal activity |  | Statistically-significant reductions in cell density | antifungal activity |  |  |
| CC1(C)CCCC(C)(c2ccc(CO)cc2O)O1 (stereo not shown) [Compound (III), 5-(hydroxymethyl)-2-(2′,6′,6′-trimethyltetrahydro-2H-pyran-2-yl)phenol] | Statistically-significant reductions in cell density | antifungal activity | antifungal activity |  | Statistically-significant reductions in cell density |  | most antifungal | antifungal activity |
